The text below walks through data of PubChem BioAssay (NCI).

“And” between values parts separate entries of the source, which are not always exact repeats. Identical values can stand only once.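 Each compound was tested at five concentrations against cells in 96-well plates for 48 hours. GI50 marks 50% less growth. Definition used: TGI = concentration required for complete inhibition of growth.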 Where only a bound is given, the exact number is not on record here.

Some test systems named below: HCT-15 colon; HOP-92 NSCLC; KM12 colon; MCF7 breast; PC-3 prostate; SK-MEL-5 melanoma; SK-OV-3 ovarian; U251 CNS; UACC-257 melanoma; SF-295 CNS.
Holding throughout (test): NCI anticancer screen, dose series, 48 h

Regarding `Cc1cc(I)cc(CN(CCCN(C)C)C(C)C)c1O`, the GI50 in the experiment with HCT-15 colon is 17.5 µM; with HOP-92 NSCLC, 5.77 µM; in the experiment on KM12 colon, 18 µM; in the experiment on MCF7 breast, 18.8 µM; in the experiment on PC-3 prostate it was 14 µM; in the experiment with SK-MEL-5 melanoma it was 16.4 µM. In addition, the GI50 is 15.1 µM in the experiment on SK-OV-3 ovarian, 18.5 µM with U251 CNS and 16.7 µM in the experiment on UACC-257 melanoma. Also, the TGI turned out to be 39.5 µM in the experiment on HCT-15 colon; 31.9 µM in the experiment on HOP-92 NSCLC; 36 µM with KM12 colon; 36 µM with MCF7 breast; 30.4 µM in the experiment on PC-3 prostate; 30.2 µM with SK-MEL-5 melanoma. Moreover, the TGI in the experiment on SK-OV-3 ovarian amounted to 30.9 µM; in the experiment on U251 CNS, 36.1 µM; with UACC-257 melanoma, 32.5 µM.

On to `CC1(C)OC1COc1c2occc2cc2ccc(=O)oc12` (configuration not stated), for which the TGI in the experiment on HCT-15 colon, in the experiment with HOP-92 NSCLC, with KM12 colon, with MCF7 breast, with PC-3 prostate and in the experiment on SF-295 CNS was over 100 µM each time. Besides, the TGI in the experiment on SK-MEL-5 melanoma, with U251 CNS and with UACC-257 melanoma was over 100 µM throughout.

On to `CC1SC(c2ccc(F)cc2)N(NC(=O)C(O)c2ccccc2)C1=O` (configuration not stated), for which the GI50 in the experiment with HCT-15 colon, in the experiment on HOP-92 NSCLC, in the experiment with KM12 colon, with MCF7 breast, in the experiment on PC-3 prostate and with SF-295 CNS was over 100 µM throughout. The GI50 with SK-MEL-5 melanoma, with U251 CNS and with UACC-257 melanoma was over 100 µM throughout. Further, the TGI in the experiment on HCT-15 colon, with HOP-92 NSCLC, in the experiment with KM12 colon, in the experiment with MCF7 breast, in the experiment on PC-3 prostate and in the experiment with SF-295 CNS was over 100 µM throughout. Further, the TGI with SK-MEL-5 melanoma, in the experiment with U251 CNS and in the experiment on UACC-257 melanoma was over 100 µM each time.

On to `COc1ccc(C2[C@@H](c3ccccc3)C(=O)N2c2cc(OC)c(OC)c(OC)c2)cc1F` (some centres not stated), for which the GI50 is 0.0336 µM in the experiment with HCT-15 colon; 2.84 µM with HOP-92 NSCLC; 0.0331 µM with KM12 colon; 0.0296 µM with MCF7 breast; 0.0403 µM with PC-3 prostate; 0.029 µM in the experiment with SF-295 CNS. In addition, the results for the GI50 with SK-MEL-5 melanoma, in the experiment on SK-OV-3 ovarian and with U251 CNS were 0.0271 µM, 0.0348 µM and 0.0359 µM, respectively. For the same compound, the TGI in the experiment on HCT-15 colon was over 100 µM; in the experiment with HOP-92 NSCLC, over 100 µM; in the experiment on KM12 colon, over 100 µM; in the experiment with MCF7 breast it was over 100 µM; in the experiment on PC-3 prostate it was over 100 µM; with SF-295 CNS, 1.78 µM. In addition, the figures for the TGI in the experiment with SK-MEL-5 melanoma, in the experiment on SK-OV-3 ovarian and in the experiment with U251 CNS were 0.075 µM, over 100 µM and over 100 µM, respectively.

For the compound `CCN(Cc1ccc(F)cc1)c1cc(Cl)c(CO)c(Cl)c1`, the GI50 in the experiment with HCT-15 colon was 15.7 µM; in the experiment with HOP-92 NSCLC it was 3.61 µM; in the experiment on MCF7 breast it was 13.7 µM; with PC-3 prostate, 11.3 µM; in the experiment with SF-295 CNS it was 10.9 µM; with SK-MEL-5 melanoma it was 13.5 µM. Also, the GI50 in the experiment with SK-OV-3 ovarian was 15.2 µM; with U251 CNS, 10.5 µM; in the experiment on UACC-257 melanoma, 6.56 µM. Moreover, the TGI in the experiment on HCT-15 colon stood at 36.6 µM; with HOP-92 NSCLC, 18.1 µM; in the experiment with MCF7 breast, 28 µM; with PC-3 prostate, 24.7 µM; in the experiment with SF-295 CNS it was 25.6 µM; in the experiment with SK-MEL-5 melanoma, 26.5 µM. For the same compound, the TGI with SK-OV-3 ovarian was 28.7 µM; in the experiment on U251 CNS, 22.6 µM; with UACC-257 melanoma, 20.4 µM.

Regarding `O=C(Oc1ccc(Cl)cc1)c1ccccc1Nc1ccnc(C(F)(F)F)c1`, the GI50 was 2.07 µM in the experiment on HCT-15 colon; 20.8 µM in the experiment with HOP-92 NSCLC; 8.94 µM in the experiment on KM12 colon; 3.73 µM in the experiment on MCF7 breast; 17 µM with PC-3 prostate; 62.8 µM with SF-295 CNS. The GI50 was 16.8 µM in the experiment with SK-MEL-5 melanoma and 4.51 µM in the experiment with UACC-257 melanoma. Also, the TGI was 5.13 µM in the experiment on HCT-15 colon; over 100 µM in the experiment on HOP-92 NSCLC; 23.1 µM in the experiment on KM12 colon; 14.7 µM in the experiment with MCF7 breast; 63.2 µM in the experiment with PC-3 prostate; over 100 µM in the experiment on SF-295 CNS. Besides, the TGI with SK-MEL-5 melanoma was found to be 36.2 µM; with UACC-257 melanoma, 24.4 µM.

Regarding `CCN1C(=O)N(c2ccccc2)C2NC(=S)N(/N=C/C=C/c3ccccc3OC)C21` (configuration not stated), the GI50 in the experiment on HCT-15 colon is 0.102 µM; in the experiment with HOP-92 NSCLC, 2.15 µM; in the experiment on KM12 colon it was 0.101 µM; in the experiment with MCF7 breast, 0.0942 µM; in the experiment on PC-3 prostate it was 0.111 µM; with SF-295 CNS, 0.0749 µM. In addition, the GI50 in the experiment on SK-MEL-5 melanoma is 0.099 µM; in the experiment with U251 CNS, 0.106 µM; in the experiment on UACC-257 melanoma it was 3.44 µM. Besides, the TGI in the experiment with HCT-15 colon is over 100 µM; in the experiment on HOP-92 NSCLC, over 85 µM; with KM12 colon it was over 36.1 µM; in the experiment on MCF7 breast it was over 64.3 µM; in the experiment on PC-3 prostate, over 89.3 µM; in the experiment on SF-295 CNS, 25.7 µM. Besides, the TGI with SK-MEL-5 melanoma was 0.607 µM; with U251 CNS, over 43.8 µM; with UACC-257 melanoma, over 88.5 µM.

As for `CC1=C2C(=C[C@@](C)(CO)[C@@H]2O)C(=O)[C@](C)(O)C12CC2`, the TGI was 0.0344 µM in the experiment with HCT-15 colon; 0.061 µM in the experiment with HOP-92 NSCLC; 0.105 µM and 0.568 µM in the experiment on KM12 colon; 0.0687 µM in the experiment on MCF7 breast; 0.0661 µM and 0.0121 µM in the experiment with PC-3 prostate; 0.0183 µM with SK-MEL-5 melanoma. The TGI is 0.0302 µM and 0.0394 µM in the experiment with SK-OV-3 ovarian; 0.0243 µM and 0.0794 µM in the experiment with U251 CNS; 0.0308 µM and 0.0229 µM in the experiment on UACC-257 melanoma.

For `CCn1c(-c2nonc2N)nc2c(C#CC(C)(C)O)nc(OC[C@@H](N)c3ccccc3)cc21`, the GI50 in the experiment with HCT-15 colon is 5.78 µM; with KM12 colon, 3.05 µM; with MCF7 breast it was 2.94 µM; with PC-3 prostate, 7.73 µM; in the experiment on SF-295 CNS, 4.59 µM; in the experiment with SK-MEL-5 melanoma, 3.99 µM. The GI50 with SK-OV-3 ovarian is 4.16 µM; in the experiment with U251 CNS, 3.98 µM; in the experiment on UACC-257 melanoma, 5.67 µM. Also, the TGI in the experiment with HCT-15 colon was 21.1 µM; in the experiment on KM12 colon it was 6.75 µM; in the experiment with MCF7 breast, 6.12 µM; in the experiment on PC-3 prostate it was 25 µM; with SF-295 CNS it was 9.63 µM; in the experiment with SK-MEL-5 melanoma, 7.37 µM. In addition, the figures for the TGI in the experiment with SK-OV-3 ovarian, in the experiment with U251 CNS and in the experiment on UACC-257 melanoma were 9.47 µM, 7.63 µM and 9.83 µM, respectively.
